Like-named read-outs stand apart in the source and are kept apart here. Where a SMILES comes first, the peptide text is derived from it.
Experiments:
[1] = target: T1, interaction between Hsp90 and the Hop's TPR2A domain (Homo sapiens, UniProt P07900); experiment: BIACORE competition: Hsp90 pre-mixed with peptide, added to immobilized TPR2A; type: binding; details: increasing peptide concentration
T1 construct: histidine tag; made in house; host or cells: Hsp90: E. coli BL21 (pDEST17-Hsp90)
Source text: It was examined whether the TPR peptide designed could compete specifically with the interaction between Hsp90, which is essential for the accurate folding of some carcinogenic protein including survivin in cancer cells, and the Hop's TPR2A domain.

HEK293 = experiment: cells; type: cell-based, human; details: Homo sapiens, HEK293; Normal cells HEK; averages of two independent experiments; read-out: Anti-tumor activity, IC50
Protocol: (§1) A total of 3×10^3 cells were inoculated per well on a 96 well plate and cultured in a medium containing 10% FBS for 24 hours, and incubated with 100 μl of a peptide having a gradual increase in concentration at 37° C. for 48 to 72 hours. The survival rate of the cells was measured by using WST-8 solution (Cell Count Reagent SF; Nacalai Tesque, Inc.).
(§2) A total of 3×10^3 cells per well were inoculated onto a 96 well plate, and incubated in a medium containing 10% FBS with 100 μl of a peptide diluted stepwise at 37° C. for 48 to 72 hours. The survival rate of the cells was measured by using WST-8 solution (Cell Count Reagent SF; Nacalai Tesque, Inc.).

[2] = tested on: human normal pancreas epithelial cell strain (PE); experiment: Cell viability assay (WST-8), PE; type: cell-based; details: Normal cells PE, averages of two independent experiments, read-out: Anti-tumor activity, IC50
Protocol: as §2

K562 = experiment: cells; type: cell-based, human; details: for IC50: Human AML cells K562, averages of two independent experiments, read-out: Anti-tumor activity, IC50
Protocol: as §2

U937 = experiment: cells; type: cell-based, human; details: for IC50: U-937, Human AML cells U937, averages of two independent experiments, read-out: Anti-tumor activity, IC50
Protocol: as §2

THP-1 = experiment: cells; type: cell-based, human; details: for IC50: Human AML cells THP-1, averages of two independent experiments, read-out: Anti-tumor activity, IC50
Protocol: as §2

HL-60 = experiment: cells; type: cell-based, human; details: for IC50: Human AML cells HL-60, averages of two independent experiments, read-out: Anti-tumor activity, IC50
Protocol: as §2

[3] = tested on: human lung normal epithelial cell strain (WI38); experiment: Cell viability assay (WST-8), WI38; type: cell-based; details: Normal cells W138, averages of two independent experiments, read-out: Anti-tumor activity, IC50
Protocol: as §2

Caki-1 [4] = type: cell-based, human; details: Caki-1, 68 μM
Protocol: The TPR peptide or the TPR scramble peptide was mixed with a commercially available transfection reagent (Profect-P2 or, Lipofectamine LTX) and the mixture was left to incubate at room temperature for 20 minutes, to form liposome before the complex was added to cancer cells (Caki-1 (kidney cancer cells)); the survival rate of the cells was then measured by using WST-8 solution (Cell Count Reagent SF; Nacalai Tesque, Inc.) and the results were compared with those such as in the case of the TPR scramble peptide or the liposome alone.

BXPC-3 = type: cell-based, human
T47D = type: cell-based, human; details: T47D
Protocol: as §1

Caki-1 [5] = type: cell-based, human; details: Caki-1; wild-type peptide = 100%
cancer cells = experiment: Cell viability assay, summary statements on cancer cells; type: cell-based; details: single mutation in TPR or Antp region of Antp-TPR

Compound: TPR mutant 1: TPR mutant 1 peptide without Antp, SEQ ID No. 70; sequence not printed in the text (KAYAAAGNSYTFK; TPR mutant 1)
- inhibition of the interaction between Hsp90 and TPR2A [1]: does not inhibit the interaction completely

Compound: C=CCNC1=C2C[C@@H](C)C[C@H](OC)[C@H](O)[C@@H](C)/C=C(\C)[C@H](OC(N)=O)[C@@H](OC)/C=C\C=C(/C)C(=O)NC(=CC1=O)C2=O [Peptide 17-AAG, 17-allylaminogeldanamycin]
- IC50 (HEK293): 700 nM
- IC50 [2]: 800 nM
- IC50 (K562): 700 nM
- Cell Survival Rate (%) (K562; K562, 1.25 μM): 5.67%
- Cell Survival Rate (%) (K562; K562, 2.5 μM): 5.08%
- Cell Survival Rate (%) (K562; K562, 5 μM): 5.67%
- Cell Survival Rate (%) (K562; K562, 10 μM): 6.35%
- Cell Survival Rate (%) (U937; U937, 1.25 μM): 5.21%
- Cell Survival Rate (%) (U937; U937, 2.5 μM): 4.03%
- Cell Survival Rate (%) (U937; U937, 5 μM): 4.97%
- Cell Survival Rate (%) (U937; U937, 10 μM): 4.16%
- IC50 (U937): 700 nM
- IC50 (THP-1): 750 nM
- Cell Survival Rate (%) (THP-1; THP-1, 1.25 μM): 6.80%
- Cell Survival Rate (%) (THP-1; THP-1, 2.5 μM): 5.49%
- Cell Survival Rate (%) (THP-1; THP-1, 5 μM): 6.56%
- Cell Survival Rate (%) (THP-1; THP-1, 10 μM): 7.76%
- Cell Survival Rate (%) (HL-60; HL-60, 1.25 μM): 37.03%
- Cell Survival Rate (%) (HL-60; HL-60, 2.5 μM): 19.70%
- Cell Survival Rate (%) (HL-60; HL-60, 5 μM): 8.37%
- Cell Survival Rate (%) (HL-60; HL-60, 10 μM): 3.87%
- IC50 (HL-60): 1050 nM
- IC50 [3]: 700 nM

Compound: COC1=C2C[C@@H](C)C[C@H](OC)[C@H](O)[C@@H](C)/C=C(\C)[C@H](OC(N)=O)[C@@H](OC)/C=C\C=C(/C)C(=O)NC(=CC1=O)C2=O [Geldanamycin, geldanamycin]
- IC50 (HEK293): 700 nM
- IC50 [2]: 700 nM
- IC50 (K562): 750 nM
- Cell Survival Rate (%) (K562; K562, 1.25 μM): 20.08%
- Cell Survival Rate (%) (K562; K562, 2.5 μM): 9.75%
- Cell Survival Rate (%) (K562; K562, 5 μM): 7.07%
- Cell Survival Rate (%) (K562; K562, 10 μM): 6.60%
- Cell Survival Rate (%) (U937; U937, 1.25 μM): 5.40%
- Cell Survival Rate (%) (U937; U937, 2.5 μM): 6.26%
- Cell Survival Rate (%) (U937; U937, 5 μM): 4.65%
- Cell Survival Rate (%) (U937; U937, 10 μM): 5.78%
- IC50 (U937): 650 nM
- IC50 (THP-1): 700 nM
- Cell Survival Rate (%) (THP-1; THP-1, 1.25 μM): 6.20%
- Cell Survival Rate (%) (THP-1; THP-1, 2.5 μM): 5.01%
- Cell Survival Rate (%) (THP-1; THP-1, 5 μM): 4.49%
- Cell Survival Rate (%) (THP-1; THP-1, 10 μM): 7.12%
- Cell Survival Rate (%) (HL-60; HL-60, 1.25 μM): 6.65%
- Cell Survival Rate (%) (HL-60; HL-60, 2.5 μM): 6.02%
- Cell Survival Rate (%) (HL-60; HL-60, 5 μM): 5.03%
- Cell Survival Rate (%) (HL-60; HL-60, 10 μM): 5.23%
- IC50 (HL-60): 700 nM
- IC50 [3]: 1000 nM

Compound: CC[C@H](C)[C@H](NC(=O)[C@H](C)NC(=O)[C@H](C)NC(=O)[C@H](CO)NC(=O)[C@H](Cc1ccccc1)NC(=O)[C@H](CCCCN)NC(=O)[C@@H](N)CCCNC(=N)N)C(=O)NCC(=O)N[C@@H](Cc1ccc(O)cc1)C(=O)N[C@@H](CC(N)=O)C(=O)N[C@@H](CCCCN)C(=O)N[C@@H](Cc1ccc(O)cc1)C(=O)O [TPR scramble, reference compound] (H-RKFSAAIGYNKY-OH; N-terminus and C-terminus assumed)
- inhibition of the interaction between Hsp90 and TPR2A [1]: does not inhibit the interaction completely
- killing effect after introduction with transfection reagent (Caki-1 [4]): not observed

Compound: CC[C@H](C)[C@H](NC(=O)[C@H](CCCNC(=N)N)NC(=O)[C@H](C)NC(=O)[C@H](Cc1ccc(O)cc1)NC(=O)[C@H](C)NC(=O)[C@H](CCCCN)NC(=O)[C@H](CCCNC(=N)N)NC(=O)[C@H](CCCNC(=N)N)NC(=O)[C@H](CCCNC(=N)N)NC(=O)[C@H](CCC(N)=O)NC(=O)[C@H](CCCNC(=N)N)NC(=O)[C@H](CCCNC(=N)N)NC(=O)[C@H](CCCCN)NC(=O)[C@H](CCCCN)NC(=O)[C@H](CCCNC(=N)N)NC(=O)CNC(=O)[C@@H](N)Cc1ccc(O)cc1)C(=O)NCC(=O)N[C@@H](CC(N)=O)C(=O)N[C@@H](CO)C(=O)N[C@@H](Cc1ccc(O)cc1)C(=O)N[C@@H](Cc1ccccc1)C(=O)N[C@@H](CCCCN)C(=O)O (H-YGRKKRRQRRRKAYARIGNSYFK-OH)
- Cell Survival Rate (%) (BXPC-3; Bxpc3, 21 μM): 82.25%
- Cell Survival Rate (%) (BXPC-3; Bxpc3, 42 μM): 73.08%
- Cell Survival Rate (%) (BXPC-3; Bxpc3, 84 μM): 60.49%
- Cell Survival Rate (%) (BXPC-3; Bxpc3, 168 μM): 47.24%
- Cell Survival Rate (%) (T47D; 21 μM): 77.68%
- Cell Survival Rate (%) (T47D; 42 μM): 58.60%
- Cell Survival Rate (%) (T47D; 84 μM): 74.23%
- Cell Survival Rate (%) (T47D; 168 μM): 17.92%

Compound: CC[C@H](C)[C@H](NC(=O)[C@H](CCCCN)NC(=O)[C@@H](NC(=O)[C@H](CCC(N)=O)NC(=O)[C@@H](N)CCCNC(=N)N)[C@@H](C)CC)C(=O)N[C@@H](Cc1c[nH]c2ccccc12)C(=O)N[C@@H](Cc1ccccc1)C(=O)N[C@@H](CCC(N)=O)C(=O)N[C@@H](CC(N)=O)C(=O)N[C@@H](CCCNC(=N)N)C(=O)N[C@@H](CCCNC(=N)N)C(=O)N[C@@H](CCSC)C(=O)N[C@@H](CCCCN)C(=O)N[C@@H](Cc1c[nH]c2ccccc12)C(=O)N[C@@H](CCCCN)C(=O)N[C@@H](CCCCN)C(=O)N[C@@H](CCCCN)C(=O)N[C@@H](C)C(=O)N[C@@H](Cc1ccc(O)cc1)C(=O)N[C@@H](C)C(=O)N[C@@H](CCCNC(=N)N)C(=O)N[C@@H](CCCNC(=N)N)C(=O)NCC(=O)N[C@@H](CC(N)=O)C(=O)N[C@@H](CO)C(=O)N[C@@H](Cc1ccc(O)cc1)C(=O)N[C@@H](Cc1ccccc1)C(=O)N[C@@H](CCCCN)C(=O)O [Antp-I6R] (H-RQIKIWFQNRRMKWKKKAYARRGNSYFK-OH; N-terminus and C-terminus assumed)
- Anti-cancer activity (% relative to wild-type peptide) (Caki-1 [5]): 1.95%
- Decrease in cell survival rate (% relative to wild-type peptide) (Caki-1 [5]): 10.87%
- Cell Survival Rate (%) (U937): 91.60%
- Anti-cancer activity (% relative to wild-type peptide) (U937; U937, wild-type peptide = 100%): 10.92%
- Decrease in cell survival rate (% relative to wild-type peptide) (U937; U937, wild-type peptide = 100%): 25.36%
- effect compared with the wild-type protein (summary of mutations) (cancer cells): effective but with a lower effect than the wild-type protein

Reference: US8546320B2, “Hsp9O-targeted anti-cancer chimeric peptide” (Kyoto University, priority 2008, dated 2013)
